Source: PMC12171764 (Computational and Structural Biotechnology Journal, 2025)

Columns and labels:
PhGal4E_1 = target: T1, PhGal4E_1 (Pyrococcus horikoshii, UniProt O73960); assay: X-ray crystal structure, […] Å, crystal soaking; assay type: binding; conditions: soaked 1-3 min with 10 mM GDP-L-Fuc; active site, NAD+ bound
T1 sequence (O73960 1-318): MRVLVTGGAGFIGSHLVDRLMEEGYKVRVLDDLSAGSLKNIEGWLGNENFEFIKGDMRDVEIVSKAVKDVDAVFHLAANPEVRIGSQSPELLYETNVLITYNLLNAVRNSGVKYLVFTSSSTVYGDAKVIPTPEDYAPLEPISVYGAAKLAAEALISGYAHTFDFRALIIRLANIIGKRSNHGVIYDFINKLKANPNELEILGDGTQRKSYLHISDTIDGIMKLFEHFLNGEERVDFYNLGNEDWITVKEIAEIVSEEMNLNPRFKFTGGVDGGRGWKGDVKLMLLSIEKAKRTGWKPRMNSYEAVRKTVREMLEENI

[1] = target: PhGal4E_1 variant Y145F (Pyrococcus horikoshii); assay: crystal structure

stoichiometry N [1]	Compound	X-ray crystal structure, 2.4 Å, crystal soaking (PhGal4E_1)
	C[C@@H]1O[C@H](OP(=O)(O)OP(=O)(O)OC[C@H]2O[C@@H](n3cnc4c(=O)[nH]c(N)nc43)[C@H](O)[C@@H]2O)[C@@H](O)[C@H](O)[C@@H]1O [GDP-L-Fuc]	NAD^+ cofactor and GDP-L-Fuc bound in the active site of the WT (PDB ID: 8RDH
2	PhGal4E_1 variant Y145F (enzyme)	
